Reference: patent US20090208934A1, “PECAM-1 GENOTYPE” (The Johns Hopkins University, priority 2005, published 2009)

What was measured:
Ren (+/PM) cells = test: Ren cell aggregation assay; assay type: cell-based; settings: 125Val plus 563Asn PECAM-1 transfected, agent added to cell suspension at two concentrations, 90 rpm, 37° C., 20 minutes, FIG. 4
Method: (§1) FIG. 4 depicts the results of a Ren cell aggregation assay. About 2×10^6 of Ren cells, Ren (−), Ren (+/WT) and Ren (+/PM), were seeded in a T75 flask and cultured for 48 hours for aggregation assays. The monodispersed Ren cells suspension (10^6 cells/ml in HBSS with 1 mM CaCl2) were prepared. Next, two concentrations of anti-PECAM-1 antibody (JHS-7) (A), and human rcPECAM-1 (B) were added in. Then, cells were transfected to wells in a 24-well tissue culture tray (1 mL per well) and rotated on a gyratory shaker (at 90 rpm) at 37° C. for 20 minutes. Data are expressed as the percent of total cells present in aggregates. *P<0.05, **P<0.01.
(§2) A variation of aggregation assay of Takeichi (59) was adopted. Briefly, confluent culture of Ren cells were detached and dispersed and resuspended to about 10^6 cells/ml in HBSS (37° C.) with 1 mM CaCl2. One ml cell aliquots were transfected to wells in a 24-well plate and rotated on a gyratory shaker (At 90 rpm) at 37° C. for 20 minutes, then stopped by addition of glutaraldehyde to a final concentration of 2%. Aggregation was quantified by examining representative aliquot of equal volumes from each sample on a hemacytometer grid under phase contrast optics. Cells remaining as single cells or present in aggregates (≧3 cells clots) were counted in nine squares. Data are expressed as the percent of total cells present in aggregates.

Ren (+/WT) cells = test: Ren cell aggregation assay; assay type: cell-based; settings: wild type PECAM-1 transfected, agent added to cell suspension at two concentrations, 90 rpm, 37° C., 20 minutes, FIG. 4
Method: as §1, §2

recombinant human PECAM-1 protein: Soluble recombinant PECAM-1 (95˜98 KDa, containing only the extracellular domains), purchased from R&D Systems (Cat# ADP6C)
effect on Ren cell aggregation (percent of total cells present in aggregates) (Ren (+/PM) cells): attenuated the aggregation
effect on Ren cell aggregation (percent of total cells present in aggregates) (Ren (+/WT) cells): attenuated the aggregation
